The values below come from the NIST ThermoML archive (doi:10.1021/acs.jced.7b00372).

One may read the refractive index as the speed of light in vacuum divided by its phase velocity in the sample. What is called vapor or sublimation pressure is the equilibrium pressure above the liquid or solid.

Data set [1] can be described thus: refractive index (Na D-line) (dimensionless); xn = mol fraction of the nth substance listed. The following applies: 293.15 K, 93 kPa, Liquid, Standard Abbe refractometry.
The conditions of data set [2]: Liquid, Ebulliometric method (Recirculating still).
Data set [3] can be described thus: refractive index (Na D-line) (dimensionless). The note with it: 93 kPa, Liquid, Standard Abbe refractometry.

Structures are written as SMILES. Values joined by “and” are separate entries in the source; they are usually repeats but may differ in a detail not shown here. Identical values can stand only once. ± gives the expanded uncertainty stated by the source.

As for `COC(=O)OC` [dimethyl carbonate] + CCc1ccccc1, the refractive index in data set [1] (x2 = 0) came out at 1.3688 ± 0.0004.
In the case of `Cc1ccccc1C` [1,2-dimethylbenzene] + COC(=O)OC, the refractive index in data set [1] (x1 = 0.045) is 1.377 ± 0.0005; in data set [1] (x1 = 0.1564), 1.3961 ± 0.0005; in data set [1] (x1 = 0.1622), 1.3969 ± 0.0005; in data set [1] (x1 = 0.2752), 1.4149 ± 0.0005; in data set [1] (x1 = 0.36), 1.4272 ± 0.0005; in data set [1] (x1 = 0.4516), 1.4397 ± 0.0005. In addition, the refractive index in data set [1] (x1 = 0.5655) turned out to be 1.4556 ± 0.0005; in data set [1] (x1 = 0.603), 1.4601 ± 0.0005; in data set [1] (x1 = 0.7134), 1.4734 ± 0.0005; in data set [1] (x1 = 0.7602) it was 1.4795 ± 0.0005; in data set [1] (x1 = 0.8813), 1.493 ± 0.0005; in data set [1] (x1 = 0.9276) it was 1.4973 ± 0.0005. Besides, the refractive index in data set [1] (x1 = 1) is 1.5048 ± 0.0004.
For `COC(=O)OC` [dimethyl carbonate] + Cc1ccc(C)cc1, the refractive index in data set [1] (x2 = 0) is 1.3687 ± 0.0004.
As for `CCc1ccccc1` [ethylbenzene], in data set [2] (406.23 K), the “vapor or sublimation pressure” value is on record as 93.13 ± 0.96 kPa. In addition, the refractive index in data set [3] (293.15 K) is 1.4956 ± 0.0004; in data set [3] (298.15 K), 1.493 ± 0.0004.
On to `Cc1cccc(C)c1` [1,3-dimethylbenzene] + COC(=O)OC, for which the refractive index in data set [1] (x1 = 0.0467) turned out to be 1.3769 ± 0.0005; in data set [1] (x1 = 0.0871), 1.3836 ± 0.0005; in data set [1] (x1 = 0.1737) it was 1.3973 ± 0.0005; in data set [1] (x1 = 0.2042) it was 1.4021 ± 0.0005; in data set [1] (x1 = 0.2593), 1.4101 ± 0.0005; in data set [1] (x1 = 0.3033) it was 1.4167 ± 0.0005. For the same molecule, the refractive index stood at 1.4262 ± 0.0005 in data set [1] (x1 = 0.3719); 1.4359 ± 0.0005 in data set [1] (x1 = 0.4455); 1.439 ± 0.0005 in data set [1] (x1 = 0.4709); 1.4481 ± 0.0005 in data set [1] (x1 = 0.5421); 1.4612 ± 0.0005 in data set [1] (x1 = 0.6549); 1.4738 ± 0.0005 in data set [1] (x1 = 0.7672). Also, the refractive index is given as 1.4839 ± 0.0005 in data set [1] (x1 = 0.8662), 1.4913 ± 0.0005 in data set [1] (x1 = 0.94) and 1.497 ± 0.0004 in data set [1] (x1 = 1).
For the molecule `COC(=O)OC` [dimethyl carbonate] + Cc1ccccc1C, the refractive index in data set [1] (x2 = 0) was 1.3688 ± 0.0004.
For `Cc1ccc(C)cc1` [1,4-dimethylbenzene] + COC(=O)OC, the refractive index in data set [1] (x1 = 0.0368) is given as 1.3752 ± 0.0005; in data set [1] (x1 = 0.0866), 1.3835 ± 0.0005; in data set [1] (x1 = 0.157), 1.3946 ± 0.0005; in data set [1] (x1 = 0.2639), 1.4106 ± 0.0005; in data set [1] (x1 = 0.3598), 1.4241 ± 0.0005; in data set [1] (x1 = 0.4244), 1.4326 ± 0.0005. Besides, the refractive index is on record as 1.4457 ± 0.0005 in data set [1] (x1 = 0.5293); 1.4586 ± 0.0005 in data set [1] (x1 = 0.6397); 1.4724 ± 0.0005 in data set [1] (x1 = 0.7655); 1.4848 ± 0.0005 in data set [1] (x1 = 0.8832); 1.4898 ± 0.0005 in data set [1] (x1 = 0.938); 1.4956 ± 0.0004 in data set [1] (x1 = 1).
In the case of `Cc1ccc(C)cc1` [1,4-dimethylbenzene], in data set [2] (408.37 K), the “vapor or sublimation pressure” value came to 93.13 ± 0.96 kPa. For the same molecule, the refractive index in data set [3] (293.15 K) is recorded as 1.4956 ± 0.0004; in data set [3] (298.15 K), 1.4929 ± 0.0004.
For `Cc1ccccc1C` [1,2-dimethylbenzene], the “vapor or sublimation pressure” value in data set [2] (414.41 K) turned out to be 93.13 ± 0.96 kPa. Besides, the refractive index in data set [3] (293.15 K) worked out at 1.5048 ± 0.0004; in data set [3] (298.15 K), 1.5022 ± 0.0004.
Take `Cc1cccc(C)c1` [1,3-dimethylbenzene]: the “vapor or sublimation pressure” value in data set [2] (409.13 K) is on record as 93.13 ± 0.96 kPa. Also, the figures for the refractive index in data set [3] (293.15 K) and in data set [3] (298.15 K) were 1.497 ± 0.0004 and 1.4943 ± 0.0004, respectively.
Turning to `COC(=O)OC` [dimethyl carbonate], in data set [2] (360.73 K), the “vapor or sublimation pressure” value was found to be 93.13 ± 0.96 kPa. In addition, the refractive index is 1.3687 ± 0.0004 and 1.3688 ± 0.0004 in data set [3] (293.15 K); 1.3664 ± 0.0004 in data set [3] (298.15 K).
As to `COC(=O)OC` [dimethyl carbonate] + Cc1cccc(C)c1, in data set [1] (x2 = 0), the refractive index was 1.3688 ± 0.0004.
Regarding `CCc1ccccc1` [ethylbenzene] + COC(=O)OC, the refractive index in data set [1] (x1 = 0.0462) is given as 1.3767 ± 0.0005; in data set [1] (x1 = 0.089), 1.3836 ± 0.0005; in data set [1] (x1 = 0.1753), 1.397 ± 0.0005; in data set [1] (x1 = 0.2701), 1.4109 ± 0.0005; in data set [1] (x1 = 0.3564), 1.4232 ± 0.0005; in data set [1] (x1 = 0.4359), 1.4335 ± 0.0006. In addition, the refractive index was found to be 1.4352 ± 0.0005 in data set [1] (x1 = 0.4448); 1.4382 ± 0.0005 in data set [1] (x1 = 0.468); 1.4441 ± 0.0005 in data set [1] (x1 = 0.5157); 1.4527 ± 0.0005 in data set [1] (x1 = 0.5825); 1.4617 ± 0.0005 in data set [1] (x1 = 0.6639); 1.4702 ± 0.0005 in data set [1] (x1 = 0.7377). Besides, the refractive index is listed as 1.4815 ± 0.0005 in data set [1] (x1 = 0.852); 1.4847 ± 0.0005 in data set [1] (x1 = 0.8827); 1.4873 ± 0.0005 in data set [1] (x1 = 0.9124); 1.49 ± 0.0005 in data set [1] (x1 = 0.9395); 1.4956 ± 0.0004 in data set [1] (x1 = 1).
